Experimental data reported in article PMC11289882, “Site-directed allostery perturbation to probe the negative regulation of hypoxia inducible factor-1α” (RSC Chemical Biology, 2024).
Where two headings read alike, the source gives them in different places. Non-standard residues stand in square brackets, D forms with d. Residues, ends and D or L forms follow the SMILES beside them. β3hE = N[C@@H](CCC(=O)O)CC(=O)O; β3hQ = NC(=O)CC[C@H](N)CC(=O)O; β3hD = NC(CC(=O)O)CC(=O)O; β3hS = N[C@@H](CO)CC(=O)O

What was measured:
[1] = molecular target: T1, p300_330–420 (TAZ1 domain) (Homo sapiens, UniProt Q09472); experiment: ITC direct titration to p300; format: binding; conditions: 35 °C
T1 construct: from residues 330-420 (used for FA and ITC experiments); GST (N, cleaved yes); made in house; host or cells: E. coli BL21 pLysS (pGEX-4T-1)

p300–Flu-HIF-1α = molecular target: T2, p300–Flu-HIF-1α (Homo sapiens, UniProt Q09472); experiment: Fluorescence anisotropy competition against p300–Flu-HIF-1α; format: binding
T2 construct: from residues 330-420 (used for FA and ITC experiments); GST (N, cleaved yes); made in house; host or cells: p300: E. coli BL21 pLysS (pGEX-4T-1); tracer peptide: solid-phase synthesis

[2] = 50 nM p300_330–420, 25 nM Flu-HIF-1α786–826 tracer, 40 mM Na-phosphate, 100 mM NaCl, 1 mM DTT, 0.01% Triton-X, pH 7.4, 10 min at 35 °C, fixed KD = 64 nM for tracer, three repeats, read-out: Kd,app FA competition against p300–Flu-HIF-1α
[3] = 5 µM p300_330–420 in cell, 60 µM ligand in syringe, 40 mM Na-phosphate pH 7.5, 100 mM NaCl, 1 mM DTT, global fit with ternary intermediate model, 68% confidence intervals in brackets, read-out: Direct binding to p300, K d

T1 sequence (Q09472 330-420): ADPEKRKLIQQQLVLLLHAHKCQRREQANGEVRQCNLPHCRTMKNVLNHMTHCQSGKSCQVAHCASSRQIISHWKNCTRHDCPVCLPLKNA
T2 sequence (Q09472 330-420): as above

Compound | Kd ([1]; 5 µM protein in cell, 60 µM peptide in syringe, 40 mM Na-phosphate, 100 mM NaCl, 1 mM DTT pH 7.4, average of three independent measurements, read-out: KD of HIF-1α776-826 binding to p300) | Kd (p300–Flu-HIF-1α; [2]) | Kd [1, 3] | Kd (p300–Flu-HIF-1α; as other FA competition values, average and standard deviation of two individual titrations (Fig. 2 and Fig. S11), SD, read-out: Kd,app FA competition against p300–Flu-HIF-1α) | Kd (p300–Flu-HIF-1α; determined by FA competition with HIF-1α776–826 as competitor (competitor KD 50 ± 8 nM from ITC), 50 nM p300, 25 nM tracer, 35 °C, read-out: KD of the fluorescent tracer for p300)
CC[C@H](C)[C@H](NC(=O)[C@@H]1CCCN1C(=O)[C@H](C)NC(=O)[C@H](CC(N)=O)NC(=O)[C@@H](NC(=O)[C@H](CCC(=O)O)NC(=O)[C@H](CS)NC(=O)[C@H](CC(=O)O)NC(=O)[C@H](Cc1ccc(O)cc1)NC(=O)[C@H](CO)NC(=O)[C@@H](NC(=O)[C@H](CC(C)C)NC(=O)[C@H](CCC(N)=O)NC(=O)[C@@H]1CCCN1C(=O)[C@H](CC(C)C)NC(=O)CNC(=O)[C@H](CO)NC(=O)[C@H](CCC(=O)O)NC(=O)[C@H](CC(=O)O)NC(=O)[C@H](CCSC)NC(=O)[C@H](CO)NC(=O)[C@H](CCC(N)=O)NC(=O)CNC(=O)[C@H](CC(C)C)NC(=O)[C@H](CC(C)C)NC(=O)[C@H](CCCNC(=N)N)NC(=O)[C@H](CS)NC(=O)[C@H](C)NC(=O)[C@H](CC(C)C)NC(=O)[C@H](CC(=O)O)NC(=O)[C@H](CO)NC(C)=O)[C@@H](C)O)C(C)C)C(=O)N[C@@H](CCC(N)=O)C(=O)NCC(=O)N[C@@H](CO)C(=O)N[C@@H](CCCNC(=N)N)C(=O)N[C@@H](CC(N)=O)C(=O)N[C@@H](CC(C)C)C(=O)N[C@@H](CC(C)C)C(=O)N[C@@H](CCC(N)=O)C(=O)NCC(=O)N[C@@H](CCC(=O)O)C(=O)N[C@@H](CCC(=O)O)C(=O)N[C@@H](CC(C)C)C(=O)N[C@@H](CC(C)C)C(=O)N[C@@H](CCCNC(=N)N)C(=O)N[C@@H](C)C(=O)N[C@@H](CC(C)C)C(=O)N[C@@H](CC(=O)O)C(=O)N[C@@H](CCC(N)=O)C(=O)N[C@H](C(=O)N[C@@H](CC(N)=O)C(N)=O)C(C)C [HIF-1α776–826] | 0.05 ± 0.008 µM | 0.057 ± 0.004 µM | – | – | –
CC[C@H](C)[C@H](NC(C)=O)C(=O)N[C@@H](CC(=O)O)C(=O)N[C@H](C(=O)N[C@@H](CC(=O)O)C(=O)N[C@@H](Cc1ccccc1)C(=O)N[C@H](C(=O)N[C@@H](CC(=O)O)C(=O)N[C@@H](CCC(=O)O)C(=O)N[C@@H](CCC(=O)O)C(=O)N[C@H](C(=O)N[C@@H](CC(C)C)C(=O)N[C@@H](CCSC)C(=O)N[C@@H](CO)C(=O)N[C@@H](CC(C)C)C(=O)N[C@H](C(=O)N[C@H](C(=O)N[C@@H](CCC(=O)O)C(=O)N[C@@H](CCSC)C(=O)NCC(=O)N[C@@H](CC(C)C)C(=O)N[C@@H](CC(=O)O)CC(=O)N[C@@H](CCCNC(=N)N)C(=O)N[C@H](C(=O)N[C@@H](CCCCN)C(=O)N[C@@H](CCC(=O)O)CC(=O)N[C@@H](CC(C)C)C(=O)N1CCC[C@H]1C(=O)N[C@@H](CCC(=O)O)CC(=O)N[C@@H](CC(C)C)C(=O)N[C@@H](Cc1c[nH]c2ccccc12)C(=O)N[C@@H](CC(C)C)C(=O)NCC(=O)N[C@@H](CCC(N)=O)C(=O)N[C@@H](CC(N)=O)C(=O)N[C@@H](CCC(=O)O)C(=O)N[C@@H](Cc1ccccc1)C(=O)N[C@@H](CC(=O)O)C(=O)N[C@@H](Cc1ccccc1)C(=O)N[C@@H](CCSC)C(N)=O)[C@@H](C)CC)[C@@H](C)CC)C(C)C)C(C)C)[C@@H](C)CC)[C@@H](C)O [3a] (Ac-IDTDFIDEEVLMSLVIEMGL[β3hD]RIK[β3hE]LP[β3hE]LWLGQNEFDFM-NH2) | – | > 0.6 µM | 0.675 µM | – | –
CC[C@H](C)[C@H](NC(C)=O)C(=O)N[C@@H](CC(=O)O)C(=O)N[C@H](C(=O)N[C@@H](CC(=O)O)C(=O)N[C@@H](Cc1ccccc1)C(=O)N[C@H](C(=O)N[C@@H](CC(=O)O)C(=O)N[C@@H](CCC(=O)O)C(=O)N[C@@H](CCC(=O)O)C(=O)N[C@H](C(=O)N[C@@H](CC(C)C)C(=O)N[C@@H](CCSC)C(=O)N[C@@H](CO)C(=O)N[C@@H](CC(C)C)C(=O)N[C@H](C(=O)N[C@H](C(=O)N[C@@H](CCC(=O)O)C(=O)N[C@@H](CCSC)C(=O)NCC(=O)N[C@@H](CC(C)C)C(=O)N[C@@H](CC(=O)O)C(=O)N[C@@H](CCCNC(=N)N)C(=O)N[C@H](C(=O)N[C@@H](CCCCN)C(=O)N[C@@H](CCC(=O)O)C(=O)N[C@@H](CC(C)C)C(=O)N1CCC[C@H]1C(=O)N[C@@H](CCC(=O)O)C(=O)N[C@@H](CC(C)C)C(=O)N[C@@H](Cc1c[nH]c2ccccc12)C(=O)N[C@@H](CC(C)C)C(=O)NCC(=O)N[C@@H](CCC(N)=O)CC(=O)N[C@@H](CC(N)=O)C(=O)N[C@@H](CCC(=O)O)CC(=O)N[C@@H](Cc1ccccc1)C(=O)N[C@@H](CC(=O)O)CC(=O)N[C@@H](Cc1ccccc1)C(=O)N[C@@H](CCSC)C(N)=O)[C@@H](C)CC)[C@@H](C)CC)C(C)C)C(C)C)[C@@H](C)CC)[C@@H](C)O [compound 4] (Ac-IDTDFIDEEVLMSLVIEMGLDRIKELPELWLG[β3hQ]N[β3hE]F[β3hD]FM-NH2) | – | 0.0017 ± 0.0007 µM | 0.017 µM | – | –
Ac-DEEVLMSLVIEMGLDRIKELPELWLGQNEFDFM-NH2 [CITED2ΔN] | – | 0.086 ± 0.005 µM | 0.051 µM | – | –
CC[C@H](C)[C@H](NC(C)=O)C(=O)N[C@@H](CC(=O)O)C(=O)N[C@H](C(=O)N[C@@H](CC(=O)O)C(=O)N[C@@H](Cc1ccccc1)C(=O)N[C@H](C(=O)N[C@@H](CC(=O)O)C(=O)N[C@@H](CCC(=O)O)C(=O)N[C@@H](CCC(=O)O)CC(=O)N[C@H](C(=O)N[C@@H](CC(C)C)C(=O)N[C@@H](CCSC)C(=O)N[C@@H](CO)CC(=O)N[C@@H](CC(C)C)C(=O)N[C@H](C(=O)N[C@H](C(=O)N[C@@H](CCC(=O)O)CC(=O)N[C@@H](CCSC)C(=O)NCC(=O)N[C@@H](CC(C)C)C(=O)N[C@@H](CC(=O)O)C(=O)N[C@@H](CCCNC(=N)N)C(=O)N[C@H](C(=O)N[C@@H](CCCCN)C(=O)N[C@@H](CCC(=O)O)C(=O)N[C@@H](CC(C)C)C(=O)N1CCC[C@H]1C(=O)N[C@@H](CCC(=O)O)C(=O)N[C@@H](CC(C)C)C(=O)N[C@@H](Cc1c[nH]c2ccccc12)C(=O)N[C@@H](CC(C)C)C(=O)NCC(=O)N[C@@H](CCC(N)=O)C(=O)N[C@@H](CC(N)=O)C(=O)N[C@@H](CCC(=O)O)C(=O)N[C@@H](Cc1ccccc1)C(=O)N[C@@H](CC(=O)O)C(=O)N[C@@H](Cc1ccccc1)C(=O)N[C@@H](CCSC)C(N)=O)[C@@H](C)CC)[C@@H](C)CC)C(C)C)C(C)C)[C@@H](C)CC)[C@@H](C)O [compound 2] (Ac-IDTDFIDE[β3hE]VLM[β3hS]LVI[β3hE]MGLDRIKELPELWLGQNEFDFM-NH2) | – | 0.0049 ± 0.0008 µM | 0.016 µM | – | –
Ac-IDTDFIDEEVLMSLVIEMGLDRIKELPELWLGQNEFDFM-NH2 [CITED2_218–256] | – | – | 0.011 µM | 0.002 ± 0.0009 µM | –
CC[C@H](C)[C@H](NC(=O)[C@@H]1CCCN1C(=O)[C@H](C)NC(=O)[C@H](CC(N)=O)NC(=O)[C@@H](NC(=O)[C@H](CCC(=O)O)NC(=O)[C@H](CS)NC(=O)[C@H](CC(=O)O)NC(=O)[C@H](Cc1ccc(O)cc1)NC(=O)[C@H](CO)NC(=O)[C@@H](NC(=O)[C@H](CC(C)C)NC(=O)[C@H](CCC(N)=O)NC(=O)[C@@H]1CCCN1C(=O)[C@H](CC(C)C)NC(=O)CNC(=O)[C@H](CO)NC(=O)[C@H](CCC(=O)O)NC(=O)[C@H](CC(=O)O)NC(=O)[C@H](CCSC)NC(=O)[C@H](CO)NC(=O)CCCCCNC(=O)c1ccc2c(c1)C(=O)OC21c2ccc(O)cc2Oc2cc(O)ccc21)[C@@H](C)O)C(C)C)C(=O)N[C@@H](CCC(N)=O)C(=O)NCC(=O)N[C@@H](CO)C(=O)N[C@@H](CCCNC(=N)N)C(=O)N[C@@H](CC(N)=O)C(=O)N[C@@H](CC(C)C)C(=O)N[C@@H](CC(C)C)C(=O)N[C@@H](CCC(N)=O)C(=O)NCC(=O)N[C@@H](CCC(=O)O)C(=O)N[C@@H](CCC(=O)O)C(=O)N[C@@H](CC(C)C)C(=O)N[C@@H](CC(C)C)C(=O)N[C@@H](CCCNC(=N)N)C(=O)N[C@@H](C)C(=O)N[C@@H](CC(C)C)C(=O)N[C@@H](CC(=O)O)C(=O)N[C@@H](CCC(N)=O)C(=O)N[C@H](C(=O)N[C@@H](CC(N)=O)C(N)=O)C(C)C [Flu-HIF-1α] | – | – | – | – | 0.064 µM
CC[C@H](C)[C@H](NC(C)=O)C(=O)N[C@@H](CC(=O)O)C(=O)N[C@H](C(=O)N[C@@H](CC(=O)O)C(=O)N[C@@H](Cc1ccccc1)C(=O)N[C@H](C(=O)N[C@@H](CC(=O)O)C(=O)N[C@@H](CCC(=O)O)C(=O)N[C@@H](CCC(=O)O)C(=O)N[C@H](C(=O)N[C@@H](CC(C)C)C(=O)N[C@@H](CCSC)C(=O)N[C@@H](CO)C(=O)N[C@@H](CC(C)C)C(=O)N[C@H](C(=O)N[C@H](C(=O)N[C@@H](CCC(=O)O)C(=O)N[C@@H](CCSC)C(=O)NCC(=O)N[C@@H](CC(C)C)C(=O)N[C@@H](CC(=O)O)CC(=O)N[C@H](C(=O)N[C@@H](CCC(=O)O)CC(=O)N[C@@H](CC(C)C)C(=O)N1CCC[C@H]1C(=O)N[C@@H](CCC(=O)O)C(=O)N[C@@H](CC(C)C)C(=O)N[C@@H](Cc1c[nH]c2ccccc12)C(=O)N[C@@H](CC(C)C)C(=O)NCC(=O)N[C@@H](CCC(N)=O)C(=O)N[C@@H](CC(N)=O)C(=O)N[C@@H](CCC(=O)O)C(=O)N[C@@H](Cc1ccccc1)C(=O)N[C@@H](CC(=O)O)C(=O)N[C@@H](Cc1ccccc1)C(=O)N[C@@H](CCSC)C(N)=O)[C@@H](C)CC)[C@@H](C)CC)C(C)C)C(C)C)[C@@H](C)CC)[C@@H](C)O [3c] (Ac-IDTDFIDEEVLMSLVIEMGL[β3hD]I[β3hE]LPELWLGQNEFDFM-NH2) | – | 0.076 ± 0.006 µM | 0.029 µM | – | –
